Data on 23 compounds can be found in patent US10155743B2, “Glutarimide derivatives, use thereof, pharmaceutical composition based thereon and methods for producing glutarimide derivatives” (OBSCHESTVO S OGRANICHENNOI OTVETSTVENNOSTIYU …, priority 2013, dated 2018).

Read-outs that look alike come from different tables or passages of the source.

Assay [1] relates to mucous membrane of nasal passages, formalin-induced acute rhinosinusitis. The assay is described as follows: Acute rhinosinusitis rat model (induced by intranasal 7.5% formalin solution). It is filed as in vivo, Wistar rats. The following applies: rats; for Macroscopic changes in the mucous membrane of nasal passages: Muculent or mucopurulent catarrh (number of animals) / Macroscopic changes in the mucous membrane of nasal passages: Without changes (number of animals): count out of n of the group; for The number of caliciform cells within 1 mm of the mucous membrane of the nasal septum: M ± m. The protocol:
Morphological studies of histologic preparations were conducted with a Leica DMLS light-optical microscope (Leica Microsystems, Germany). Micro-morphometric assessment was performed by using an ocular micrometer on a Leica DMLB microscope.
Acute rhinosinusitis was induced by intranasal administration of 20 μl of 7.5% formalin solution (aqueous solution comprising 40% formaldehyde, 8% methyl alcohol, and 52% water) to each nasal passage of rats.
Administration of formalin to rat nasal passages leads to the dissemination of inflammation to adjacent tissues, resulting in a clinical pattern similar to the symptoms of rhinosinusitis in a human.
After an acclimatization period, the following groups were formed: • intact animals administered intragastrically a saline solution in an amount of 0.2 ml, the induction of acute rhinosinusitis was not performed; • a control group consisted of the animals administered intragastrically a saline solution in an amount of 0.2 ml for 7 days after induction of acute rhinosinusitis; • animals administered intramuscularly dexamethasone at a dose of 0.33 mg/kg for 7 days after induction of acute rhinosinusitis; and • animals administered the tested compounds at a dose of 27 mg/kg for 7 days after induction of acute rhinosinusitis.
Clinical observation of each animal was performed every day at least twice daily.
In the experiment with Wistar rats, the induction of acute rhinosinusitis by administration of a 7.5% formalin solution to nasal passages caused in the control group of animals pronounced pathological changes characterizing the development of an acute inflammation process in the nasal mucous. The caused pathology was characterized by congestion, hyperplasia, focal necrosis of the nasal meatus mucous membrane, an increased number of caliciform cells, pronounced infiltration by mononuclear cells and leucocytes, and mucus hyperproduction by submucosal glands.
The mucous and submucous membranes of both nasal passages (respiratory and olfactory regions) of the experimental animals were subjected to a morphological analysis to evaluate a specific activity of the compounds.
For microscopic examination, the sections were stained with hematoxylin and eosin. Detection of acid mukopolysaccharides, the production of which is increased in an inflammation, was performed by histochemical staining of the preparation with Alcian Blue (pH 2.5). The comparison and histological evaluation of changes were performed versus the group of intact rats.
After slaughter, the gross appearance of inflammation in the nasal passages was studied in each animal. Histological, hystochemical and morphological studies of rats were intended to evaluate the following characteristics of nasal passages: congestion of the mucous membrane; hyperplasia and necrosis of nasal epithelium, the number of caliciform cells within 1 mm of the mucous membrane of the nasal septum, and the character of inflammation.
In this study, the efficiency of the mucociliary system was evaluated by the number of caliciform cells and, as a consequence, microscopic changes in the mucous membrane of the nasal passages.

The test system of assay [2] is Coxsackie A2-virus (strain HCXV A2). The assay is described as follows: Antiviral activity against Coxsackie virus in vivo (mortality of infected mice). Conditions: for inhibition in vivo at 30 mg/kg / mortality at 30 mg/kg: Mus musculus, po; for inhibition in vivo at 30 mg/kg: 168 h, read-out: Protective index (%); for mortality at 30 mg/kg: 360 h, read-out: Total mortality rate, %; for Average expectancy life (days), Vs. control: difference to virus control. On the set-up: species or system white mice.

[3] abbreviates: tested compounds 27 mg/kg for 7 days.
Where [4] appears, read: mice, 10LD50 HCXV A2, 30 mg/kg orally once daily for 7 days.
[5] abbreviates: mice, 10LD50 HCXV A2 i.m., 30 mg/kg orally once daily for 7 days from 24 h after infection, 15 days monitoring.
The mark [6] stands for this setting: tested compounds 27 mg/kg for 7 days after induction.
Setting [7] is: dexamethasone 0.33 mg/kg intramuscularly for 7 days.

Regarding `CC1CC(=O)N(CCc2cnc[nH]2)C(=O)C1` [Compound 2], in assay [1] (setting [3]), the “Macroscopic changes in the mucous membrane of nasal passages: Muculent or mucopurulent catarrh (number of animals)” value turned out to be 3 and the “Macroscopic changes in the mucous membrane of nasal passages: Without changes (number of animals)” value is 5. Moreover, in assay [2] (setting [4]), the inhibition in vivo at 30 mg/kg amounted to 40%; the “Average expectancy life (days), Relative” value was 22.4 days; the “Average expectancy life (days), Vs. control” value was “+9.5 days”. Besides, the mortality (in general, the share of the test organisms that died) at 30 mg/kg in assay [2] (setting [5]) is 42.9%.
As to `O=C1CCCC(=O)N1CCc1nc2ccccc2s1` [Compound 7, 1-[2-(1H-benzothiazol-2-yl)ethyl]piperidine-2-dione], in assay [1] (setting [3]), the “Macroscopic changes in the mucous membrane of nasal passages: Muculent or mucopurulent catarrh (number of animals)” value turned out to be 13 and the “Macroscopic changes in the mucous membrane of nasal passages: Without changes (number of animals)” value was found to be 5.
With `O=C1CCCC(=O)N1CCc1ncc[nH]1` [Compound 8], the “The number of caliciform cells within 1 mm of the mucous membrane of the nasal septum” value (“The number” for short) in assay [1] (setting [6]) turned out to be 34.5 ± 0.8. In assay [1] (setting [3]), the “Macroscopic changes in the mucous membrane of nasal passages: Muculent or mucopurulent catarrh (number of animals)” value was found to be 3 and the “Macroscopic changes in the mucous membrane of nasal passages: Without changes (number of animals)” value came to 3.
With `O=C1CCCC(=O)N1CCc1ccccn1` [Compound 13], in assay [2] (setting [4]), the inhibition in vivo at 30 mg/kg is 36%; the “Average expectancy life (days), Relative” value was 19.0 days; the “Average expectancy life (days), Vs. control” value is “+8.3 days”. Moreover, the mortality at 30 mg/kg in assay [2] (setting [5]) was found to be 46.7%.
In the case of `O=C1CCCC(=O)N1CCN1CCCCC1` [Compound 14], in assay [2], the inhibition in vivo at 30 mg/kg is 36% and the mortality at 30 mg/kg is 50%. In assay [2] (setting [4]), the “Average expectancy life (days), Relative” value came to 21.4 days and the “Average expectancy life (days), Vs. control” value is reported as “+10.4 days”.
Turning to `COC(=O)C(Cc1c[nH]c2ccccc12)N1C(=O)CCCC1=O` (stereo not shown) [Compound 21], in assay [1] (setting [3]), the “Macroscopic changes in the mucous membrane of nasal passages: Muculent or mucopurulent catarrh (number of animals)” value is on record as 5 and the “Macroscopic changes in the mucous membrane of nasal passages: Without changes (number of animals)” value is reported as 3.
For `CCOC(=O)C(Cc1c[nH]c2ccccc12)N1C(=O)CCCC1=O` (stereo not shown) [Compound 27] the same measures were 4 and 4.
In the case of `O=C1CC(O)CC(=O)N1CCc1cnc[nH]1` [Compound 28], in assay [1] (setting [3]), the “Macroscopic changes in the mucous membrane of nasal passages: Muculent or mucopurulent catarrh (number of animals)” value turned out to be 4 and the “Macroscopic changes in the mucous membrane of nasal passages: Without changes (number of animals)” value is 4.
In the case of `O=C1CCC(O)C(=O)N1CCc1cnc[nH]1` (stereo not shown) [Compound 29], in assay [2] (setting [4]), the inhibition in vivo at 30 mg/kg turned out to be 50%; the “Average expectancy life (days), Relative” value stood at 26.7 days; the “Average expectancy life (days), Vs. control” value was “+13.7 days”. The mortality at 30 mg/kg in assay [2] (setting [5]) amounted to 35.7%.
In the case of `CC(Cc1cnc[nH]1)N1C(=O)CCCC1=O` (stereo not shown) [Compound 32], in assay [1] (setting [3]), the “Macroscopic changes in the mucous membrane of nasal passages: Muculent or mucopurulent catarrh (number of animals)” value was 5 and the “Macroscopic changes in the mucous membrane of nasal passages: Without changes (number of animals)” value amounted to 3. For the same compound, in assay [2] (setting [4]), the inhibition in vivo at 30 mg/kg is 33%; the “Average expectancy life (days), Relative” value was determined as 22.2 days; the “Average expectancy life (days), Vs. control” value is “+10.0 days”. For the same compound, the mortality at 30 mg/kg in assay [2] (setting [5]) was 42.9%.
On to `O=C1CCCC(=O)N1CCCc1c[nH]cn1` [Compound 33], for which, in assay [1] (setting [3]), the “Macroscopic changes in the mucous membrane of nasal passages: Muculent or mucopurulent catarrh (number of animals)” value is listed as 5 and the “Macroscopic changes in the mucous membrane of nasal passages: Without changes (number of animals)” value is given as 3.
Consider `O=C(O)C(Cc1ccoc1)N1C(=O)CCCC1=O` (stereo not shown) [Compound 44], for which, in assay [1] (setting [3]), the “Macroscopic changes in the mucous membrane of nasal passages: Muculent or mucopurulent catarrh (number of animals)” value is reported as 4 and the “Macroscopic changes in the mucous membrane of nasal passages: Without changes (number of animals)” value is given as 4. Also, in assay [2] (setting [4]), the inhibition in vivo at 30 mg/kg amounted to 55%; the “Average expectancy life (days), Relative” value came to 32.3 days; the “Average expectancy life (days), Vs. control” value is “+20.1 days”. Also, in assay [2] (setting [5]), the mortality at 30 mg/kg was determined as 28.6%.
With `CC1CCC(=O)N(CCc2c[nH]cn2)C1=O` (stereo not shown) [Compound 56], in assay [1] (setting [3]), the “Macroscopic changes in the mucous membrane of nasal passages: Muculent or mucopurulent catarrh (number of animals)” value is reported as 3 and the “Macroscopic changes in the mucous membrane of nasal passages: Without changes (number of animals)” value turned out to be 5.
Turning to `NC1CC(=O)N(CCc2c[nH]cn2)C(=O)C1` [Compound 65], in assay [1] (setting [3]), the “Macroscopic changes in the mucous membrane of nasal passages: Muculent or mucopurulent catarrh (number of animals)” value came to 4 and the “Macroscopic changes in the mucous membrane of nasal passages: Without changes (number of animals)” value was 4.
Turning to `NC1CCC(=O)N(CCc2cnc[nH]2)C1=O` (stereo not shown) [Compound 67], in assay [2] (setting [4]), the inhibition in vivo at 30 mg/kg was found to be 50%; the “Average expectancy life (days), Relative” value is recorded as 27.0 days; the “Average expectancy life (days), Vs. control” value was “+16.2 days”. Further, in assay [2] (setting [5]), the mortality at 30 mg/kg worked out at 35.7%.
On to `CC1CCC(=O)N(C(Cc2cnc[nH]2)C(=O)O)C1=O` (stereo not shown) [Compound 70], for which, in assay [1] (setting [3]), the “Macroscopic changes in the mucous membrane of nasal passages: Muculent or mucopurulent catarrh (number of animals)” value was 4 and the “Macroscopic changes in the mucous membrane of nasal passages: Without changes (number of animals)” value was 4.
In the case of `CC1CC(=O)N(C(Cc2cnc[nH]2)C(=O)O)C(=O)C1` (stereo not shown) [Compound 71], in assay [2] (setting [4]), the inhibition in vivo at 30 mg/kg was 44%; the “Average expectancy life (days), Relative” value is 28.6 days; the “Average expectancy life (days), Vs. control” value is “+16.4 days”. Also, in assay [2] (setting [5]), the mortality at 30 mg/kg was 35.7%.
Take `NC1CCC(=O)N(C(Cc2c[nH]cn2)C(=O)O)C1=O` (stereo not shown) [Compound 75]: in assay [1] (setting [3]), the “Macroscopic changes in the mucous membrane of nasal passages: Muculent or mucopurulent catarrh (number of animals)” value is recorded as 5 and the “Macroscopic changes in the mucous membrane of nasal passages: Without changes (number of animals)” value came to 3. Moreover, in assay [2] (setting [4]), the inhibition in vivo at 30 mg/kg is 50%; the “Average expectancy life (days), Relative” value is 27.3 days; the “Average expectancy life (days), Vs. control” value is recorded as “+14.3 days”. Further, in assay [2] (setting [5]), the mortality at 30 mg/kg was found to be 35.7%.
As for `O=C(O)C(Cc1cnc[nH]1)N1C(=O)CCC(O)C1=O` (stereo not shown) [Compound 76], in assay [1] (setting [3]), the “Macroscopic changes in the mucous membrane of nasal passages: Muculent or mucopurulent catarrh (number of animals)” value was found to be 6 and the “Macroscopic changes in the mucous membrane of nasal passages: Without changes (number of animals)” value came to 2.
For `O=C1CCCC(=O)N1CCC1CNCCO1` (stereo not shown) [Compound 89], in assay [2] (setting [4]), the inhibition in vivo at 30 mg/kg was 27%; the “Average expectancy life (days), Relative” value amounted to 17.7 days; the “Average expectancy life (days), Vs. control” value is recorded as “+7.0 days”. For the same compound, in assay [2] (setting [5]), the mortality at 30 mg/kg stood at 53.3%.
Take `O=C1CCCC(=O)N1CCC1COCCN1` (stereo not shown) [Compound 90]: in assay [2] (setting [4]), the inhibition in vivo at 30 mg/kg worked out at 50%; the “Average expectancy life (days), Relative” value is listed as 25.9 days; the “Average expectancy life (days), Vs. control” value is “+15.1 days”. Besides, the mortality at 30 mg/kg in assay [2] (setting [5]) is 35.7%.
`O=C1CCCC(=O)N1CCc1nc2ccccc2[nH]1` [Compound 124]: the “The number” value in assay [1] (setting [6]) is given as 37.6 ± 1.4. Also, in assay [1] (setting [3]), the “Macroscopic changes in the mucous membrane of nasal passages: Muculent or mucopurulent catarrh (number of animals)” value was 8 and the “Macroscopic changes in the mucous membrane of nasal passages: Without changes (number of animals)” value was 4.
For `C[C@@H]1C[C@H]2[C@@H]3CCC4=CC(=O)C=C[C@]4(C)[C@@]3(F)[C@@H](O)C[C@]2(C)[C@@]1(O)C(=O)CO` [Dexamethasone, dexamethasone, reference compound], the “The number” value in assay [1] (dexamethasone 0.33 mg/kg intramuscularly for 7 days after induction) came to 34.8 ± 2.1. For the same compound, in assay [1] (setting [7]), the “Macroscopic changes in the mucous membrane of nasal passages: Muculent or mucopurulent catarrh (number of animals)” value was 3 and the “Macroscopic changes in the mucous membrane of nasal passages: Without changes (number of animals)” value came out at 3.
